Results from PubChem BioAssay AID1918932 (Molecular Pharmacology Branch, DTP, NCI, 2023).

Test system: 171881-019-R-J1-PDC complex spheroid viability
Assay: Anticancer human tumor 171881-019-R-J1-PDC patient-derived invasive breast carcinoma cell line growth inhibition
Settings: for IC50: curve of first compound; for viability, T/C: stronger effect = lower value
Outline: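 Multicellular complex spheroids of tumor cells with human endothelial cells (HUVEC) and mesenchymal stem cells; the LSD1 inhibitor iadademstat was combined with standard-of-care or investigational agents. Top concentration at or near clinical Cmax, half-log dilutions; final DMSO ≤0.25%.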

[1] = second compound 0.1 µM, first compound 0.00316 µM
[2] = second compound 0.1 µM, first compound 0.01 µM
[3] = second compound 0.1 µM, first compound 0.0316 µM
[4] = second compound 0.1 µM, first compound 0.1 µM
[5] = second compound 0.316 µM, first compound 0.00316 µM
[6] = second compound 0.316 µM, first compound 0.01 µM
[7] = second compound 0.316 µM, first compound 0.0316 µM
[8] = second compound 0.316 µM, first compound 0.1 µM
[9] = second compound 1 µM, first compound 0.00316 µM
[10] = second compound 1 µM, first compound 0.01 µM
[11] = second compound 1 µM, first compound 0.0316 µM
[12] = second compound 1 µM, first compound 0.1 µM
[13] = second compound 3.16 µM, first compound 0.00316 µM
[14] = second compound 3.16 µM, first compound 0.01 µM
[15] = second compound 3.16 µM, first compound 0.0316 µM
[16] = second compound 3.16 µM, first compound 0.1 µM
[17] = second compound 10 µM, first compound 0.00316 µM
[18] = second compound 10 µM, first compound 0.01 µM
[19] = second compound 10 µM, first compound 0.0316 µM
[20] = second compound 10 µM, first compound 0.1 µM
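Further: spheroids exposed to agents for 7 days after 3 days growth.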

In the case of `COc1cc(Nc2ncc3c(n2)-c2ccc(Cl)cc2C(c2c(F)cccc2OC)=NC3)ccc1C(=O)O` + NC1CCC(NC2CC2c2ccccc2)CC1, the IC50 (second compound 0.1 µM) is reported as > 1 µM, the IC50 (second compound 0.316 µM) is reported as > 1 µM and the IC50 (second compound 1 µM) is reported as > 1 µM. For the same molecule, the IC50 (second compound 3.16 µM) was > 1 µM, the IC50 (second compound 10 µM) was > 1 µM and the viability, T/C [1] was 105%. For the same molecule, the viability, T/C [2] was 99.2%, the viability, T/C [3] was 100% and the viability, T/C [4] was 99.6%. The viability, T/C (second compound 0.1 µM, first compound 0.316 µM) was 93.7%, the viability, T/C (second compound 0.1 µM, first compound 1 µM) was 60.1% and the viability, T/C [5] was 111%. The viability, T/C [6] was 92.9%, the viability, T/C [7] was 98.6% and the viability, T/C [8] was 95.9%. The viability, T/C (second compound 0.316 µM, first compound 0.316 µM) was 92.4%, the viability, T/C (second compound 0.316 µM, first compound 1 µM) was 59.2% and the viability, T/C [9] was 112%. The viability, T/C [10] was 107%, the viability, T/C [11] was 93.5% and the viability, T/C [12] was 105%. The viability, T/C (second compound 1 µM, first compound 0.316 µM) was 88.5%, the viability, T/C (second compound 1 µM, first compound 1 µM) was 62.2% and the viability, T/C [13] was 110%. For the same molecule, the viability, T/C [14] was 104%, the viability, T/C [15] was 95.7% and the viability, T/C [16] was 88.3%. It also gave a viability, T/C (second compound 3.16 µM, first compound 0.316 µM) of 92%, a viability, T/C (second compound 3.16 µM, first compound 1 µM) of 60.9% and a viability, T/C [17] of 113%. It also gave a viability, T/C [18] of 111%, a viability, T/C [19] of 97.6% and a viability, T/C [20] of 104%. It also gave a viability, T/C (second compound 10 µM, first compound 0.316 µM) of 86.7% and a viability, T/C (second compound 10 µM, first compound 1 µM) of 60.7%.
With `Cn1ncnc1C1c2n[nH]c(=O)c3cc(F)cc(c23)NC1c1ccc(F)cc1` (stereo not given) + NC1CCC(NC2CC2c2ccccc2)CC1 the IC50 (second compound 0.1 µM) was > 0.1 µM, the IC50 (second compound 0.316 µM) was > 0.1 µM and the IC50 (second compound 1 µM) was > 0.1 µM. The IC50 (second compound 3.16 µM) was > 0.1 µM, the IC50 (second compound 10 µM) was > 0.1 µM and the viability, T/C (second compound 0.1 µM, first compound 0.000316 µM) was 92.3%. It also gave a viability, T/C (second compound 0.1 µM, first compound 0.001 µM) of 79.1%, a viability, T/C [1] of 88.4% and a viability, T/C [2] of 79.3%. It also gave a viability, T/C [3] of 81.4%, a viability, T/C [4] of 85.7% and a viability, T/C (second compound 0.316 µM, first compound 0.000316 µM) of 82.1%. For the same molecule, the viability, T/C (second compound 0.316 µM, first compound 0.001 µM) was 76.3%, the viability, T/C [5] was 69.3% and the viability, T/C [6] was 71.5%. It also gave a viability, T/C [7] of 81.8%, a viability, T/C [8] of 76.7% and a viability, T/C (second compound 1 µM, first compound 0.000316 µM) of 78.9%. For the same molecule, the viability, T/C (second compound 1 µM, first compound 0.001 µM) was 85.5%, the viability, T/C [9] was 70.7% and the viability, T/C [10] was 71.7%. For the same molecule, the viability, T/C [11] was 73.5%, the viability, T/C [12] was 79.9% and the viability, T/C (second compound 3.16 µM, first compound 0.000316 µM) was 90%. It also gave a viability, T/C (second compound 3.16 µM, first compound 0.001 µM) of 78.8%, a viability, T/C [13] of 59.2% and a viability, T/C [14] of 86.7%. The viability, T/C [15] was 78.8%, the viability, T/C [16] was 85.7% and the viability, T/C (second compound 10 µM, first compound 0.000316 µM) was 73%. It also gave a viability, T/C (second compound 10 µM, first compound 0.001 µM) of 84.5%, a viability, T/C [17] of 71% and a viability, T/C [18] of 76.3%. It also gave a viability, T/C [19] of 72.6% and a viability, T/C [20] of 88.6%.
`NS(=O)(=O)OCC1CC(n2ccc3c(NC4CCc5ccccc54)ncnc32)CC1O` (stereo not given) + NC1CCC(NC2CC2c2ccccc2)CC1 showed an IC50 (second compound 0.1 µM) of 0.0419 µM, an IC50 (second compound 0.316 µM) of 0.0427 µM and an IC50 (second compound 1 µM) of 0.0311 µM. The IC50 (second compound 3.16 µM) was 0.0327 µM, the IC50 (second compound 10 µM) was 0.039 µM and the viability, T/C (second compound 0.1 µM, first compound 0.00949 µM) was 109%. It also gave a viability, T/C (second compound 0.1 µM, first compound 0.03 µM) of 58.5%, a viability, T/C (second compound 0.1 µM, first compound 0.0949 µM) of 29.3% and a viability, T/C (second compound 0.1 µM, first compound 0.3 µM) of 23.5%. The viability, T/C (second compound 0.1 µM, first compound 0.949 µM) was 27.9%, the viability, T/C (second compound 0.1 µM, first compound 3 µM) was 23.8% and the viability, T/C (second compound 0.316 µM, first compound 0.00949 µM) was 110%. The viability, T/C (second compound 0.316 µM, first compound 0.03 µM) was 58.5%, the viability, T/C (second compound 0.316 µM, first compound 0.0949 µM) was 30.5% and the viability, T/C (second compound 0.316 µM, first compound 0.3 µM) was 27.9%. For the same molecule, the viability, T/C (second compound 0.316 µM, first compound 0.949 µM) was 27.3%, the viability, T/C (second compound 0.316 µM, first compound 3 µM) was 21.7% and the viability, T/C (second compound 1 µM, first compound 0.00949 µM) was 103%. It also gave a viability, T/C (second compound 1 µM, first compound 0.03 µM) of 50.7%, a viability, T/C (second compound 1 µM, first compound 0.0949 µM) of 23.8% and a viability, T/C (second compound 1 µM, first compound 0.3 µM) of 23.3%. The viability, T/C (second compound 1 µM, first compound 0.949 µM) was 27.7%, the viability, T/C (second compound 1 µM, first compound 3 µM) was 20.5% and the viability, T/C (second compound 3.16 µM, first compound 0.00949 µM) was 109%. It also gave a viability, T/C (second compound 3.16 µM, first compound 0.03 µM) of 51.2%, a viability, T/C (second compound 3.16 µM, first compound 0.0949 µM) of 31.7% and a viability, T/C (second compound 3.16 µM, first compound 0.3 µM) of 22.8%. For the same molecule, the viability, T/C (second compound 3.16 µM, first compound 0.949 µM) was 25.1%, the viability, T/C (second compound 3.16 µM, first compound 3 µM) was 19.2% and the viability, T/C (second compound 10 µM, first compound 0.00949 µM) was 94.6%. The viability, T/C (second compound 10 µM, first compound 0.03 µM) was 54.8%, the viability, T/C (second compound 10 µM, first compound 0.0949 µM) was 33.1% and the viability, T/C (second compound 10 µM, first compound 0.3 µM) was 26.1%. It also gave a viability, T/C (second compound 10 µM, first compound 0.949 µM) of 21.1% and a viability, T/C (second compound 10 µM, first compound 3 µM) of 16.9%.
